Where no end group is shown, it is not given here.
Key:
[1] = test system: E. faecium LMGT 2783 (WT); test: MIC50, microtiter plates with serial 2-fold dilutions; assay type: cell-based, Enterococcus faecium; conditions: lowest concentration reducing visible growth by at least 50%, ISO-BHI medium, mean of three biological replicates
Method: (§1) The sensitivity of the mutants to AurA53- and EntL50-like bacteriocins, nisin, RAM, GRA, carbenicillin, and chlortetracycline was determined using microtiter plates with serial 2-fold dilutions of the antimicrobials, as described previously ([41]). The lowest concentration of the agent reducing visible bacterial growth by at least 50% was taken as the MIC (MIC50) value. The sensitivity to other antibiotics was determined using agar plates with antibiotic strips as described previously ([12]). The antibiotic concentration at the point where the inhibition zone intersected the strip was taken as the MIC value. The antibiotic susceptibilities of E. faecium LMGT 2783, MUT_130 to MUT_132, MUT_136 to MUT_139, and MUT_140 and MUT_141 were tested in ISO-BHI medium (Oxoid) supplemented with 5 μg/mL Em when appropriate, while those of E. faecium MUT_142 to MUT_149 were tested in CM17 medium supplemented with 5 μg/mL Em. To study the effects of NaCl and sodium dodecyl sulfate (SDS) on bacterial growth, saturated overnight cultures of E. faecium were used for inoculation at a dilution of 1:100 in BHI medium with serial dilutions of these compounds at concentrations of 0.5 to 10% (wt/vol) and 3.0 × 10^−2 to 2.5 × 10^−3% (wt/vol), respectively. Bacterial cultures were incubated at 37°C without shaking for 24 h in a Bioscreen turbidometric automated analyzer (Bioscreen C, Growth Curves Ltd., Finland) in Honeycomb 100-well plates (Oy Growth Curves Ab Ltd.). […] The assays were made at least in triplicate.

[2] = test system: E. faecium MUT_145 (ΔliaFSR pGh:PptcB:liaR); test: as above; assay type: cell-based, Enterococcus faecium; conditions: microtiter 2-fold dilutions, at least 50% growth reduction, CM17 + 5 μg/mL Em, mean of three biological replicates
Method: as §1

[3] = test system: E. faecium MUT_147 (ΔliaFSR ΔliaX pGhost9 empty vector); test: as above; assay type: cell-based, Enterococcus faecium; conditions: microtiter 2-fold dilutions, at least 50% growth reduction, CM17 + 5 μg/mL Em, mean of three biological replicates
Method: as §1

[4] = test system: E. faecium MUT_146 (ΔliaFSR pGh:PptcB:liaSR); test: as above; assay type: cell-based, Enterococcus faecium; conditions: microtiter 2-fold dilutions, at least 50% growth reduction, CM17 + 5 μg/mL Em, mean of three biological replicates
Method: as §1

[5] = test system: E. faecium MUT_148 (ΔliaFSR ΔliaX pGh:PptcB:liaS); test: as above; assay type: cell-based, Enterococcus faecium; conditions: microtiter 2-fold dilutions, at least 50% growth reduction, CM17 + 5 μg/mL Em, mean of three biological replicates
Method: as §1

[6] = test system: E. faecium MUT_150 (ΔliaFSR ΔliaX pGh:PptcB:liaSR); test: as above; assay type: cell-based, Enterococcus faecium; conditions: microtiter 2-fold dilutions, at least 50% growth reduction, CM17 + 5 μg/mL Em, mean of three biological replicates
Method: as §1

[7] = test system: E. faecium MUT_143 (ΔliaFSR pGhost9 empty vector); test: as above; assay type: cell-based, Enterococcus faecium; conditions: microtiter 2-fold dilutions, at least 50% growth reduction, CM17 + 5 μg/mL Em, mean of three biological replicates
Method: as §1

[8] = test system: E. faecium MUT_149 (ΔliaFSR ΔliaX pGh:PptcB:liaR); test: as above; assay type: cell-based, Enterococcus faecium; conditions: microtiter 2-fold dilutions, at least 50% growth reduction, CM17 + 5 μg/mL Em, mean of three biological replicates
Method: as §1

[9] = test system: E. faecium MUT_144 (ΔliaFSR pGh:PptcB:liaS); test: as above; assay type: cell-based, Enterococcus faecium; conditions: microtiter 2-fold dilutions, at least 50% growth reduction, CM17 + 5 μg/mL Em, mean of three biological replicates
Method: as §1

[10] = test system: E. faecium MUT_140 (liaFSR deletion) and MUT_141 (liaFSR plus liaX deletion); test: Susceptibility of deletion strains as a group (microtiter MIC50 or antibiotic strips); assay type: cell-based, Enterococcus faecium; conditions: for Effect of the deletions on sensitivity (in words): both deletion strains MUT_140 and MUT_141 compared with WT
Method: as §1

[11] = test system: spontaneous E. faecium BHT-B-resistant mutants; conditions: four mutants MUT_132, MUT_136, MUT_137, MUT_138, span over the mutants
Method: Spontaneous resistant mutants were obtained by growing E. faecium LMGT 2783 in the presence of the bacteriocin as described previously ([41]). […] The stability of changes in BHT-B sensitivity was determined by continuously subculturing mutants in BHI broth without bacteriocin. Subcultures were formed at 24-h intervals, and sensitivity to BHT-B was validated after 1, 5, and 10 passages with simultaneous control of culture purity.
as §1

Substance | MIC50 [1] [mg/L] | MIC50 [2] [mg/L] | MIC50 [3] [mg/L] | MIC50 [4] [mg/L] | MIC50 [5] [mg/L] | MIC50 [6] [mg/L] | MIC50 [7] [mg/L] | MIC50 [8] [mg/L] | MIC50 [9] [mg/L] | Effect of the deletions on sensitivity (in words) [10] | Fold increase in sensitivity relative to WT ([10]; both deletion strains MUT_140 and MUT_141) [fold] | Fold-lower sensitivity than that of WT E. faecium [11]
enterocin 7 [Ent7] | 1.6 | 1.6 | 0.4 | 1.6 | 0.4 | 1.6 | 0.4 | 1.6 | 0.4 | – | – | –
enterocin L50 [EntL50] | 1.6 | 1.6 | 0.4 | 1.6 | 0.4 | 3.2 | 0.4 | 3.2 | 0.4 | – | – | –
gramicidin | 0.006 | 0.047 | 0.006 | 0.047 | 0.006 | 0.047 | 0.006 | 0.047 | 0.006 | unaffected | – | –
nisin (ITSISLCTPGCKTGALMGCNMKTATCHCSIHVSK; not fully specified (some residues, bridges); cysteine pairing not given here; also: lantibiotic; UniProt P13068 24-57, looked up) [lantibiotic bacteriocin, ≥900 IU/mg, Glentham Life Sciences] | 125 | 16 | 8 | 16 | 8 | 16 | 8 | 16 | 8 | – | 16 | no more than 4 fold
ramoplanin | 0.4 | 0.3 | 0.3 | 0.3 | 0.3 | 0.6 | 0.3 | 0.6 | 0.3 | unaffected | – | –
salivaricin C [SalC] | 25 | 50 | 12.5 | 50 | 12.5 | 50 | 12.5 | 50 | 12.5 | – | – | no more than 4 fold
weissellicin M [WelM] | 6.3 | 25 | 6.3 | 25 | 6.3 | 50 | 6.3 | 50 | 6.3 | unaffected | – | –
